Data taken from patent publication US8236337B2, “Anti-microbial orthodontic compositions and appliances and methods of production and use thereof” (Selenium, Ltd., priority 2005, dated 2012).

System: Biofilm formation
Assay: Inhibition of biofilm formation by selenium compounds (Example 4)
Type: cell-based
Set-up: Percent inhibition of Biofilm formation: concentration or dose not given beside the values
Settings: not given

Compound	Biofilm formation, log reduction [logs]	Percent inhibition of Biofilm formation [%]
C=C(C)C(=O)OCCOC(=O)CC(C)OC(=O)CC[Se][Se]CCC(=O)OC(C)CC(=O)OCCOC(=O)C(=C)C (centres unmarked) [3-[3-(2-{1-Methyl-2-[2-(2-methyl-acryloyloxy)-ethoxycarbonyl]-ethoxycarbonyl}-ethyldiselenyl)-propionyloxy]-butyric acid 2-(2-methyl-acryloyloxy)-ethyl ester]	8	100
C1CCC(C[Se][Se]CC2CCCCC2)CC1 [1,2-Bis(cyclohexylmethyl)diselenide]	–	98
NCC[Se-].[Na+] [Sodium 1-amino,2-seleno ethane]	3	99.9
CC(O)C(O)[Se]C#N (centres unmarked) [1-selenocyanato,2-hydroxy propanol]	8	100
3,4-Bis(selenyl)ethanoic acid	8	100
N#C[Se]CCN [1-amino,2-selenocyanato ethane]	5	99.999
3,4-Bis(selenyl)propionic acid	2	99
3,4-Bis(selenyl)2-hydroxy propanol	8	100
Cl.Cl.NCC[Se][Se]CCN [Selenocystamine 2HCl]	5	99.999
c1ccc([Se][Se]c2ccccc2)cc1 [1,2-Bis(phenyl)diselenide]	8	100
CC(NC(=O)OCC1c2ccccc2-c2ccccc21)[Se]C#N (centres unmarked) [Fmoc-1-amino,1-selenocyanato ethane]	8	100

System: not listed separately
Assay: Superoxide radical generation by selenium modified bonding agent coated on a surface, measured by chemiluminescence; leaching check of soak water
Settings: mixed with AAEMA to final selenium concentration of 5%, coated on PMMA plastic or human toenail and dried
Procedure: In this hydrophobic mixing experiment, a selenium compound comprising a CN protecting group [2-(selenocyanatoacetoxy)butoxyethyl methacrylate] was mixed with the bonding agent 2-(Acetoacetoxy)ethylmethacrylate (AAEMA) to a final selenium concentration of 5%. The selenium composition was then applied to a surface, such as a PMMA plastic or a human toenail (results with both surfaces were the same), preferably at a concentration of about 100 mg/cm^2. The ability of the selenium modified bonding agent to generate superoxide radicals was then measured by chemiluminescence, as shown in FIG. 1. In FIG. 1, “Crude 1” and “Crude 2” refer to a mixture of the selenium labeled material with AAEMA; “pure” refers to the pure selenium labeled compound (no AAEMA); “blank” refers to the AAEMA with no selenium; for “plastic removed”, the mixture-coated plastic was soaked in water, and then after removal of the plastic, the aqueous solution was tested for any selenium that may have come off.

Compound	ability to generate superoxide radicals (chemiluminescence)
C=C(C)C(=O)OCCOCC(CC)OC(=O)C[Se]C#N (centres unmarked) [2-(selenocyanatoacetoxy)butoxyethyl methacrylate]	still demonstrating chemiluminescence

Same assay, conditions: mixture-coated plastic soaked in water, aqueous solution tested by chemiluminescence after removal of plastic

Compound	leaching of selenium from coated plastic ("plastic removed" sample)
C=C(C)C(=O)OCCOCC(CC)OC(=O)C[Se]C#N (centres unmarked) [2-(selenocyanatoacetoxy)butoxyethyl methacrylate]	no significant leaching
